Test results from patent US20230028918A1, “COMPOSITIONS COMPRISING PKC-BETA INHIBITORS AND PROCESSES FOR THE PREPARATION THEREOF” (priority 2019, published 2023).
In brackets after ≈: the same amount, converted by molar mass. Read-outs that look alike come from different tables or passages of the source.

Key:
Human PKC delta = Human PKC delta (Homo sapiens, UniProt Q05655); test: PKC inhibition, in vitro enzyme assay; type: biochemical
Excerpt: (§1) The methods for these determinations have been described (Grant, et al. 2010, Eur. J. Pharmacol. 627:16-25).

pSHP2 (PKCβ cell assay) = test: pSHP2 (PKCβ cell assay); type: cell-based
Excerpt: as §1

Interleukin-8 release = test: Interleukin-8 release; type: cell-based
Excerpt: as §1

PKCβ signaling = PKCβ signaling assay: SERBP1 phosphorylation after PMA + ionomycin in whole blood of CLL/SLL patients dosed with Compound A; type: in vivo, human; settings: for inhibition at 100 mg / inhibition at 200 mg / inhibition at 250 mg: Homo sapiens
Method: A phosphor-flow assay was employed to measure the phosphorylation of SERBP1, a novel substrate for PKCP. Whole blood samples were taken at the appropriate time points from CLL patients receiving compound A as part of a phase 1 study, and were shipped overnight and processed for testing the next day. Whole blood was stimulated with PMA+ionomycin, cells were permeabilized, and the amount of SERBP1 phophorylation was measured. The reported data are the CD19+pSERBP1+ population, normalized to each patient's own unstimulated sample at the corresponding time point.
To monitor PKCβ mediated signaling, a biomarker marker assay was developed using Alexa-647 label anti-phospho_SERBP1 antibody.
Briefly, whole blood specimens from each patient was drawn into sodium citrate collection tubes. Samples will be shipped overnight to the flow cytometry lab for processing and testing
Duplicates will be prepared for each treatment condition per donor. The following conditions will be prepared for each donor, unstimulated and PMA and ionomycin stimulated samples. Whole blood 200 μL will be placed in appropriate size cryovial. The samples will be treated as described in Table 1 and incubated at 37° C., 5.0% CO2 for 25-30 minutes.
Following stimulation 2 mL 1×BD FACSLyse will be added, then vortexed and incubated for 12-15 minutes in the dark at ART. Samples will be stored immediately at −80° C. until testing.
Samples from each subject will be processed in batches with all timepoints and include a normal human control unstimulated and stimulated sample. All samples will be processed and collected in singlet.
Frozen samples will be thawed by placing samples in a 37° C. water or bead bath. Sample will be transferred to tubes and centrifuged at 1700 rpm, for 5 minutes at ambient room temperature (ART) with Brake on. Samples will be decanted and washed twice with 1 mL Stain Buffer (FBS). Samples will be resuspended in 200 μL Stain Buffer (FBS) and […] appropriate volume of fluorochrome-conjugated monoclonal surface antibodies will be added (Table 2).
Samples will be hand mixed and incubated for 15-20 minutes in the dark at ART. Samples will be washed twice with 1 mL Stain Buffer (FBS). After wash, 200 μL Fix/Perm buffer will be added to each sample, then vortexed and incubated for 30-35 minutes in the dark at 2-8° C. Samples will be washed twice with 1 ml 1× Permeabilization Buffer (Perm Buffer). 100 μL of 1× Perm Buffer and appropriate volume of pSERBP1 AF647 will be added (documented in the study paperwork) and incubated for 30-35 minutes in the dark at 2-8° C. Samples will be washed twice with 1 mL 1× Perm Buffer. Samples will be resuspended in 125 μL 1× Stain Buffer FBS for acquisition on the flow cytometer.
Flow cytometric data acquisition will be performed using the BD FACSCantoII™ which evaluates two scatter parameters and up to eight color fluorescence channels. Data will be acquired using BD FACSDiva™ software (version 6.1.3 or higher). The samples will be acquired to distinguish the cells of interest from other cell types in the peripheral blood by electronic gating on the basis of CD45 versus side scatter. The instrument will be set to collect 50,000 CD45+ lymphocyte events. Dual combination cytograms and/or histograms will be generated to illustrate the LL (−/−), LR (+/−), UL (−/+), UR (+/+) and/or interval gate for the fraction of the cells. The Flow Cytograms will be printed and maintained with study binder.
The Median Fluorescence Intensity for the AF647 channel will be reported for each population (CD45, CD3, CD19 and CD20). Relative % data will also be reported for CD3+, CD3−CD19+, CD3−CD20+, CD3−CD19+HLADR+CD86+, and CD3−CD20+HLADR+CD86+. Data will be analyzed by Microsoft Excel to obtain descriptive statistics; i.e. Mean, SD, and CV %.
The flow cytometry data are analyzed to determine the amount of SERBP1 phosphorylation following PMA/ionomycin stimulation.

[1] = Compound A plasma concentration and food effect in patients; type: in vivo, human; settings: for Compound A Plasma Concentration: Day 8 pre-dose trough (Cmin); for concentration at 3 h post-dose on Day 8: human, plasma, Day 8, 3 h post-dose peak
Clinical tolerability = type: in vivo; settings: human, plasma, oral; clinical trial, compound taken with food; read-out: Plasma Cmax that is well-tolerated
primary CLL cells [2] = test: Immunoblot of BCR signaling in primary CLL cells; type: cell-based; settings: versus vehicle control
primary CLL cells [3] = test: CCL3 and CCL4 secretion by primary CLL cells (ELISA); type: cell-based; settings: 5 μM, presence or absence of anti-IgM ligation, 24 hrs
[4] = tested on: primary CLL cells with WT and C481S BTK; test: CD86 and HLA-DR expression on CpG-stimulated primary CLL cells with WT and C481S BTK (flow cytometry); type: cell-based; settings: up to 10 μM, CpG stimulation, 48 hrs, baseline and post-relapse samples from ibrutinib treated patients
Method: Cryopreserved baseline samples and post-relapse samples from ibrutinib treated patients (n=2) were thawed and treated with up to 10 μM compound A and stimulated with 3.2 M CpG. CD86 (FIG. 3A) and HLA-DR (FIG. 3B) expression was measured by flow cytometry at 48 hrs. Mean fluorescence intensity (MFI) is reported. Error bars represent standard deviation.

physchem = settings: pH 7

Chain of Human PKC delta (Q05655 whole entry): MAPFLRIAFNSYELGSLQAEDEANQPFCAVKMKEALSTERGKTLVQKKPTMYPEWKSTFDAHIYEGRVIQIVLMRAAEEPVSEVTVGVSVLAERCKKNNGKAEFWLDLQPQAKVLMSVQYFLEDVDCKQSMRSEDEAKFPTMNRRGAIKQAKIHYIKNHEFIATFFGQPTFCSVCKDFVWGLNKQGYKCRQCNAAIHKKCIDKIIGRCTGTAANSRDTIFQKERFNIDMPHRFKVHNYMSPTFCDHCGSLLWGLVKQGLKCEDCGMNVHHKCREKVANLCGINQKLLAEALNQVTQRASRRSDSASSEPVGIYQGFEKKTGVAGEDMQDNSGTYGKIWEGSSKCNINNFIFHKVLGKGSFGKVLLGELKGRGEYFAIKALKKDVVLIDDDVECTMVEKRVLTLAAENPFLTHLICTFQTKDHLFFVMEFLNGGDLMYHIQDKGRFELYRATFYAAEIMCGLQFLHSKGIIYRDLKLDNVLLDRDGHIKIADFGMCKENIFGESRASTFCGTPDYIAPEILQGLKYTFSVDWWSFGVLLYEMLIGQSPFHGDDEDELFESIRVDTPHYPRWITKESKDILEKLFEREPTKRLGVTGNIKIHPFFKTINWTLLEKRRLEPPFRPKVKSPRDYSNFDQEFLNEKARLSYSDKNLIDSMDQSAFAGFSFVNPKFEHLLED

SMILES: Cc1ncc(F)c(Nc2n[nH]c3c2CN(C(=O)N2C[C@@H](C)N(CC4CCOCC4)C[C@@H]2C)C3(C)C)n1 [Compound A, 5-{[(2S,5R)-2,5-dimethyl-4-(tetrahydro-2H-pyran-4-ylmethyl)piperazin-1-yl]carbonyl}-N-(5-fluoro-2-methylpyrimidin-4-yl)-6,6-dimethyl-1,4,5,6-tetrahydropyrrolo[3,4-c]pyrazol-3-amine]
- Inhibition of PKC delta (Human PKC delta): does not significantly inhibit
- IC50 (pSHP2 (PKCβ cell assay)): 9.8 nM
- IC50 (Interleukin-8 release): 39 nM
- Mean Stimulation at Day 8 3 h Post-Dose Peak (PKCβ signaling; 100 mg BID, N = 1): 96%
- Mean Stimulation at Day 8 Pre-Dose Trough (Cmin) (PKCβ signaling; 100 mg BID, N = 1): 109%
- Mean Stimulation at Day 8 3 h Post-Dose Peak (PKCβ signaling; 200 mg BID, N = 3): 100%
- Mean Stimulation at Day 8 Pre-Dose Trough (Cmin) (PKCβ signaling; 200 mg BID, N = 3): 121%
- Mean Stimulation at Day 8 3 h Post-Dose Peak (PKCβ signaling; 250 mg BID, N = 3): 102%
- Mean Stimulation at Day 8 Pre-Dose Trough (Cmin) (PKCβ signaling; 250 mg BID, N = 3): 104%
- Phosphorylation of SERBP1 (CD19+pSERBP1+ population) (PKCβ signaling; CLL patients in phase 1 study, PMA + ionomycin stimulated whole blood): inhibits phosphorylation of SERBP1 in vivo
- inhibition at 100 mg (PKCβ signaling; 192 h, 100 mg BID, Day 8 pre-dose, read-out: % Inhibition of Stimulation at Trough (Cmin)): 51%
- inhibition at 200 mg (PKCβ signaling; 192 h, 200 mg BID, Day 8 pre-dose, read-out: % Inhibition of Stimulation at Trough (Cmin)): 70%
- inhibition at 250 mg (PKCβ signaling; 192 h, 250 mg BID, Day 8 pre-dose, read-out: % Inhibition of Stimulation at Trough (Cmin)): 97%
- inhibition at 100 mg (PKCβ signaling; 100 mg BID, Day 8, 3 h post-dose, read-out: % Inhibition of Stimulation at Peak): 122%
- inhibition at 200 mg (PKCβ signaling; 200 mg BID, Day 8, 3 h post-dose, read-out: % Inhibition of Stimulation at Peak): 102%
- inhibition at 250 mg (PKCβ signaling; 250 mg BID, Day 8, 3 h post-dose, read-out: % Inhibition of Stimulation at Peak): 98%
- Plasma concentration that completely suppresses PKCβ signaling (PKCβ signaling; whole blood samples from patients with CLL or SLL): 500 to 600 ng/mL
- Compound A Plasma Concentration ([1]; 100 mg BID): 186 ng/mL
- Compound A Plasma Concentration ([1]; 200 mg BID): 295 ng/mL
- Compound A Plasma Concentration ([1]; 250 mg BID): 542 ng/mL
- Effect of food on the PK profile ([1]; clinical trial data): does not have a significant effect
- concentration at 3 h post-dose on Day 8 ([1]; 100 mg BID): 587 ng/mL
- concentration at 3 h post-dose on Day 8 ([1]; 200 mg BID): 837 ng/mL
- concentration at 3 h post-dose on Day 8 ([1]; 250 mg BID): 1310 ng/mL
- Effect of food on the pharmacokinetics ([1]; single dose of the IR formulations): no significant effect
- Cmax (Clinical tolerability): ~2000 ng/mL
- Phosphorylation of PKCβ and downstream targets (pPKCβ, pERK, pIκBα, pGSK3β) (primary CLL cells [2]): decreased phosphorylation
- CCL3 and CCL4 secretion (primary CLL cells [3]): inhibition of pro-inflammatory cytokine expression
- CD86 and HLA-DR expression (MFI) [4]: reduces activation
- solubility at 24 h (physchem): 1040 µg/mL (≈ 2080 µM)
